Measurements taken from patent US20080009418A1, “Selective Inhibitors” (Alchemia LTD., priority 2004, published 2008).

Columns and labels:
[1] = target: T1, Human neurokinin (NK1) (Homo sapiens, UniProt P25103); test: Radioligand binding, human neurokinin NK1 membranes, filtration, [125I]-Substance P; conditions: compound at 10 μM, [125I]-Substance P
T1 construct: purchased Perkin Elmer Biosignal
Outline: (§1)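 Percent inhibition of radioligand binding measured on recombinant human membranes: NK1 with [125I]-Substance P, KOP with [3H]-Diprenorphine. Incubation 1 h at room temperature, then harvest onto 0.3% PEI-soaked filters, cold Tris-HCl pH 7.4 washes and scintillation counting; non-specific binding from reference ligand wells.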

[2] = target: T2, Human Melanocortin (MC4) (Homo sapiens, UniProt P32245); test: Radioligand binding, human melanocortin MC4 membranes, FlashPlate, [125I]-NDP-αMSH; conditions: compound at 10 μM, [125I]-NDP-αMSH
T2 construct: purchased Perkin Elmer Biosignal
T2 sequence (P32245 whole entry): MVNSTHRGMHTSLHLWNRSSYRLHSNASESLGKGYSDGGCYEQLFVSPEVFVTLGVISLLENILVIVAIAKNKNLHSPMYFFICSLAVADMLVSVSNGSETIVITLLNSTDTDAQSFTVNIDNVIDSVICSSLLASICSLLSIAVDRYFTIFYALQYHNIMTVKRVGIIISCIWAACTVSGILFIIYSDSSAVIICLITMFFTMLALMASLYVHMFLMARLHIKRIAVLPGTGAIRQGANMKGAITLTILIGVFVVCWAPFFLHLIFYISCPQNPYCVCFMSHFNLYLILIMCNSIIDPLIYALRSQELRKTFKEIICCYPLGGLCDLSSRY
Outline: (§2)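 Cloned human receptor membranes were coated onto FlashPlate wells and incubated with radioligand and compound (added from a 0.5 mM DMSO daughter plate) for 1 hour at room temperature in the dark. Scintillation counting gave percent inhibition, with DMSO defining total and reference ligand defining non-specific binding.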

[3] = target: T3, Human neuropeptide Y (NPY-Y1) (Homo sapiens, UniProt P25929); test: Radioligand binding, human neuropeptide Y NPY-Y1 membranes, FlashPlate, [125I]-PYY; conditions: compound at 10 μM, [125I]-PYY
T3 construct: purchased Perkin Elmer Biosignal
T3 sequence (P25929 1-384): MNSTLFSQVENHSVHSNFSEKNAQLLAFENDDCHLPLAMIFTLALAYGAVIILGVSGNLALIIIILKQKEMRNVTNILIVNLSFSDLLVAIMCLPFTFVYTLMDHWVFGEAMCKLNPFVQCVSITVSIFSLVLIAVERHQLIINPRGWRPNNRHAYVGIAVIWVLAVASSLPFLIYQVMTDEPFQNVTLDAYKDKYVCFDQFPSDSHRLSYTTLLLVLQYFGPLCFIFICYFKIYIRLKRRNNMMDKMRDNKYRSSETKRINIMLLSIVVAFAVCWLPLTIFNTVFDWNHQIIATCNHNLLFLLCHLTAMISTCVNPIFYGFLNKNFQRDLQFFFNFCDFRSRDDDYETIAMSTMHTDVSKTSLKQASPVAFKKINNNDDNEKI
Outline: as §2

[4] = target: T4, Human δ-opioid (DOP) (Homo sapiens, UniProt P41143); test: Radioligand binding, human δ-opioid (DOP) membranes, FlashPlate, [3H]-Bremazocine; conditions: compound at 10 μM, [3H]-Bremazocine
T4 construct: purchased Perkin Elmer Biosignal
T4 sequence (P41143 whole entry): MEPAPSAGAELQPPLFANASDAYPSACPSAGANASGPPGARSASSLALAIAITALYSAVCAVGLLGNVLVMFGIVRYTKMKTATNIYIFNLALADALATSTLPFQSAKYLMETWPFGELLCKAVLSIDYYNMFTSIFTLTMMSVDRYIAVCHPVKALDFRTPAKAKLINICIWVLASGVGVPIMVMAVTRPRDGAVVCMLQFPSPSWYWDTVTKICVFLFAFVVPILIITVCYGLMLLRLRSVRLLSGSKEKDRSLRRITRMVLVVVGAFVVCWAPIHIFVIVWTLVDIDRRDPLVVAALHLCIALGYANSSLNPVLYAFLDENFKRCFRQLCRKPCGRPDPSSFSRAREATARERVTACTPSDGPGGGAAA
Outline: as §2

[5] = target: T5, Human κ-Opioid (KOP) (Homo sapiens, UniProt P41145); test: Radioligand binding, human κ-opioid (KOP) membranes, filtration, [3H]-Diprenorphine; conditions: compound at 10 μM, [3H]-Diprenorphine
T5 construct: purchased Perkin Elmer Biosignal
T5 sequence (P41145 whole entry): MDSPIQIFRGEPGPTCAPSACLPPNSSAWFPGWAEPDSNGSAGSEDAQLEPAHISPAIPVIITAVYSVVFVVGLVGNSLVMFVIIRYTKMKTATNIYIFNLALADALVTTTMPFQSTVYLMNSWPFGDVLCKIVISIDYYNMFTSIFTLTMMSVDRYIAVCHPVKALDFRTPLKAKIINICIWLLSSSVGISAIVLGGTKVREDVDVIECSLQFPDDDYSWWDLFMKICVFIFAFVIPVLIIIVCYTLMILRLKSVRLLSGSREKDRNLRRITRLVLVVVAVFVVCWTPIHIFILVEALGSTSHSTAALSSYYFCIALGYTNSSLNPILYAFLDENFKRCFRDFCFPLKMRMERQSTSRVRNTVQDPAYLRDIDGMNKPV
Outline: as §1

[6] = target: T6, Human melanin-concentrating hormone (MCH1) (Homo sapiens, UniProt Q99705); test: Radioligand binding, human melanin-concentrating hormone MCH1 membranes, FlashPlate, [125I]-S36057; conditions: compound at 10 μM; for A6: inhibition of radioligand binding, human melanin-concentrating hormone (MCH1) / A6 radioligand binding, percentage inhibition: [125I]-S36057
T6 construct: purchased Perkin Elmer Biosignal
T6 sequence (Q99705 whole entry): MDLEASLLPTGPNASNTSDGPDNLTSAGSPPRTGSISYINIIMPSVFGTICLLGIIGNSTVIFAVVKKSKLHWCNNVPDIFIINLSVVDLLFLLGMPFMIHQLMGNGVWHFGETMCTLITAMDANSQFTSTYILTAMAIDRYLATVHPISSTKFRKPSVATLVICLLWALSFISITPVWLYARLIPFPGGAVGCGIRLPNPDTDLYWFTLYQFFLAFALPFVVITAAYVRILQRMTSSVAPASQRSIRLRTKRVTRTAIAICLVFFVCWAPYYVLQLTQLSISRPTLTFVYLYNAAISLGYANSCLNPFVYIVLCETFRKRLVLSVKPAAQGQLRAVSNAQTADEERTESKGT
Outline: as §2

[7] = target: T7, Human opioid (ORL1) (Homo sapiens, UniProt P41146); test: Radioligand binding, human opioid ORL1 membranes, FlashPlate, [125I]-Nociceptin; conditions: compound at 10 μM, [125I]-Nociceptin
T7 construct: purchased Perkin Elmer Biosignal
T7 sequence (P41146 whole entry): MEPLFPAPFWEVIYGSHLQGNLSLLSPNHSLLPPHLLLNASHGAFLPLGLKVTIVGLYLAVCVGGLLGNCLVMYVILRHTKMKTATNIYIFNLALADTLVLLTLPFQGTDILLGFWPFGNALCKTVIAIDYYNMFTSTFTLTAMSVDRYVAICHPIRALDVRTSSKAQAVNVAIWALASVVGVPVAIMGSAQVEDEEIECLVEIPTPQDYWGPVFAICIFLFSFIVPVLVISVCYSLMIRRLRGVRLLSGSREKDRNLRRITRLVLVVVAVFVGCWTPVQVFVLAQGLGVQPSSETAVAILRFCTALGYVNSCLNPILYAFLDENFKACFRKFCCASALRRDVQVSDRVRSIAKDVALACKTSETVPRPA
Outline: as §2

[8] = target: T8, Human μ-opioid (MOP) (Homo sapiens, UniProt P35372); test: Radioligand binding, human μ-opioid (MOP) membranes, FlashPlate, [3H]-Naloxone; conditions: compound at 10 μM, [3H]-Naloxone
T8 construct: purchased Perkin Elmer Biosignal
T8 sequence (P35372 whole entry): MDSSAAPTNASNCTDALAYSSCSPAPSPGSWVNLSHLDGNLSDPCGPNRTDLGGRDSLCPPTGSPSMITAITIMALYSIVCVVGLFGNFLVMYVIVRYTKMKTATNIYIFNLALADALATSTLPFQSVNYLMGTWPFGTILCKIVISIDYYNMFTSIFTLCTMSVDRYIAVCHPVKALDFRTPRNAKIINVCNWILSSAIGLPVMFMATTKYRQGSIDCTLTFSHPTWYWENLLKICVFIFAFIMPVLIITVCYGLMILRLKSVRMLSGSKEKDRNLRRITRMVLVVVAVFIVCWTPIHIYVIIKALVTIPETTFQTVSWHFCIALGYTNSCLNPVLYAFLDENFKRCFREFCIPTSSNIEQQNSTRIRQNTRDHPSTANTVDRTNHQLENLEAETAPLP
Outline: as §2

[9] = target: T9, Mouse urotensin (mUR2) (Mus musculus, UniProt Q8VIH9); test: Radioligand binding, mouse urotensin mUR2 membranes, FlashPlate, [125I]-Urotensin II; conditions: compound at 10 μM, [125I]-Urotensin II
T9 construct: purchased Perkin Elmer Biosignal
T9 sequence (Q8VIH9 1-385): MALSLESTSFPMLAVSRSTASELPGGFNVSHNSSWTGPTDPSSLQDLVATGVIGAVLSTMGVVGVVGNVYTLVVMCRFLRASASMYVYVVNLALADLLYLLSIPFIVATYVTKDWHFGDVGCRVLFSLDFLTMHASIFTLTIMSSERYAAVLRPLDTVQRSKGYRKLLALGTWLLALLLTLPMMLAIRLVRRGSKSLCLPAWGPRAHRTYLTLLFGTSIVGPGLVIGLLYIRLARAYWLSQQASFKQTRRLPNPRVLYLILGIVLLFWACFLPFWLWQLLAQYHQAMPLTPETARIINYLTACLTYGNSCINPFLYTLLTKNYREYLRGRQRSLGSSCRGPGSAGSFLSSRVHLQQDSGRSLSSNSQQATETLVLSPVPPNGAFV
Outline: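 Cloned mouse urotensin (mUR2) receptor membranes from Perkin Elmer Biosignal were immobilized in FlashPlate microplates using a proprietary coating. Each well got 19.5 μl buffer, then 0.5 μl of DMSO, reference ligand, or compound. Adding 5 μl of [125I]-Urotensin II, diluted to 5× final concentration in binding buffer, started binding. Plates were sealed with TopSeal-A and incubated 1 hour at room temperature in the dark. Wells were counted for 30 seconds each on a TopCount after a 60-second delay, and percentage inhibition was calculated.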

[10] = target: T10, Human Melanocortin (MC3) (Homo sapiens, UniProt P41968); test: Radioligand binding, human melanocortin MC3 membranes, FlashPlate, [125I]-NDP-αMSH; conditions: compound at 10 μM, [125I]-NDP-αMSH
T10 construct: purchased Perkin Elmer Biosignal
T10 sequence (P41968 whole entry): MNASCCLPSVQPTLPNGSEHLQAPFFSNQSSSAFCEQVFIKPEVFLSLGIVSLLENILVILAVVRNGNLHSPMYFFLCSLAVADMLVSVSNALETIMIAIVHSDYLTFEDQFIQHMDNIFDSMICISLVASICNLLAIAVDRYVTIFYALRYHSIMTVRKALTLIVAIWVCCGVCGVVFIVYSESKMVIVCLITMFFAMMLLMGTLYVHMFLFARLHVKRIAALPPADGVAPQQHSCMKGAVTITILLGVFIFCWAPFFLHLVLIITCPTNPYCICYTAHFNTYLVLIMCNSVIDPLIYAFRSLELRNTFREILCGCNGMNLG
Outline: as §2

[11] = target: T11, Human melanocortin (MC5) (Homo sapiens, UniProt P33032); test: Radioligand binding, human melanocortin MC5 membranes, FlashPlate, [125I]-NDP-αMSH; conditions: compound at 10 μM, [125I]-NDP-αMSH
T11 construct: purchased Perkin Elmer Biosignal
T11 sequence (P33032 whole entry): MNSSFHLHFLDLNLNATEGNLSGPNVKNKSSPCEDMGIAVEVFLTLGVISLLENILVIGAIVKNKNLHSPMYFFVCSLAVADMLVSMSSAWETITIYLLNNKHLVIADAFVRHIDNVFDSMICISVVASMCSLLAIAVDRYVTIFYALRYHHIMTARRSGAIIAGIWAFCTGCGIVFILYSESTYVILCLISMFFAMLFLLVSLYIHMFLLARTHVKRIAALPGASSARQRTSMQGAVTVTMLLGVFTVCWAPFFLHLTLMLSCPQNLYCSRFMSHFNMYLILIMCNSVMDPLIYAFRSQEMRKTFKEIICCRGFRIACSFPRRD
Outline: as §2

T1 sequence (P25103 whole entry): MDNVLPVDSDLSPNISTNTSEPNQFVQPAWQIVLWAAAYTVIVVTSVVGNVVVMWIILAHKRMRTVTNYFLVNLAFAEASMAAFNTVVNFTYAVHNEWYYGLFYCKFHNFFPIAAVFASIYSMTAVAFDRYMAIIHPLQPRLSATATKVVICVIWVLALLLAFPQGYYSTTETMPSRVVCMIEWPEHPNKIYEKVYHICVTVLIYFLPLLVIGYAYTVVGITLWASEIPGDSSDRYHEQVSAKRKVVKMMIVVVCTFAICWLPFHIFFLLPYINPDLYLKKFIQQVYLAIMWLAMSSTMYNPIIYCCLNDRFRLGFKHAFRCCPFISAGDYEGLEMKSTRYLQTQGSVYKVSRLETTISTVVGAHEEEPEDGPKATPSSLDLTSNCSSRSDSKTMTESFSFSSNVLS

| SMILES | A8: inhibition of radioligand binding, human neurokinin (NK1) [1] | A4: inhibition of radioligand binding, human melanocortin (MC4) [2] | A9: inhibition of radioligand binding, human neuropeptide Y (NPY-Y1) [3] | A1: inhibition of radioligand binding, human δ-opioid (DOP) [4] | A2: inhibition of radioligand binding, human κ-opioid (KOP) [5] | A6: inhibition of radioligand binding, human melanin-concentrating hormone (MCH1) [6] | A7: inhibition of radioligand binding, human μ-opioid (MOP) [8] | A11: inhibition of radioligand binding, mouse urotensin (mUR2) [9] | A3: inhibition of radioligand binding, human melanocortin (MC3) [10] | A5: inhibition of radioligand binding, human melanocortin (MC5) [11] | A8 radioligand binding, percentage inhibition [1] | A4 radioligand binding, percentage inhibition [2] | A9 radioligand binding, percentage inhibition [3] | A1 radioligand binding, percentage inhibition [4] | A2 radioligand binding, percentage inhibition [5] | A6 radioligand binding, percentage inhibition [6] | A10 radioligand binding, percentage inhibition [7] | A7 radioligand binding, percentage inhibition [8] | A11 radioligand binding, percentage inhibition [9] | A3 radioligand binding, percentage inhibition [10] | also measured |
| --- | --- | --- | --- | --- | --- | --- | --- | --- | --- | --- | --- | --- | --- | --- | --- | --- | --- | --- | --- | --- | --- |
| CO[C@H]1[C@H](O)[C@@H](COCc2ccc3ccccc3c2)OC(OCc2ccc(Cl)cc2)[C@@H]1NC(=O)CNC(=N)N (stereo partly shown) [compound 355] | + (“+” indicates greater than 50% inhibition at 10 μM) | + (“+” indicates greater than 50% inhibition at 10 μM) | − (“−” indicates less than 50% inhibition at 10 μM) | − (“−” indicates less than 50% inhibition at 10 μM) | − (“−” indicates less than 50% inhibition at 10 μM) | − (“−” indicates less than 50% inhibition at 10 μM) | − (“−” indicates less than 50% inhibition at 10 μM) | − (“−” indicates less than 50% inhibition at 10 μM) | − (“−” indicates less than 50% inhibition at 10 μM) | + (“+” indicates greater than 50% inhibition at 10 μM) |  |  |  |  |  |  |  |  |  |  | A10: inhibition of radioligand binding, human opioid (ORL1) [7]: − (“−” indicates less than 50% inhibition at 10 μM) |
| CO[C@H]1[C@H](O)[C@@H](COCc2cccc(O)c2)OC(OCc2ccc(-c3ccccc3)cc2)[C@@H]1NC(=O)CNC(=N)N (stereo partly shown) [compound 146] |  |  |  |  |  |  |  |  |  |  | + (“+” indicates greater than 50% inhibition at 10 μM) | − (“−” indicates less than 50% inhibition at 10 μM) | − (“−” indicates less than 50% inhibition at 10 μM) | − (“−” indicates less than 50% inhibition at 10 μM) | + (“+” indicates greater than 50% inhibition at 10 μM) | − (“−” indicates less than 50% inhibition at 10 μM) | − (“−” indicates less than 50% inhibition at 10 μM) | − (“−” indicates less than 50% inhibition at 10 μM) | − (“−” indicates less than 50% inhibition at 10 μM) | − (“−” indicates less than 50% inhibition at 10 μM) | A5 radioligand binding, percentage inhibition [11]: + (“+” indicates greater than 50% inhibition at 10 μM) |
| N=C(N)NCC(=O)N[C@H]1C(OCc2ccc(Cl)cc2)O[C@H](COCc2ccc(Cl)cc2)[C@@H](O)[C@@H]1OCc1ccc2ccccc2c1 (stereo partly shown) [compound 515] | + (“+” indicates greater than 50% inhibition at 10 μM) | + (“+” indicates greater than 50% inhibition at 10 μM) | − (“−” indicates less than 50% inhibition at 10 μM) | − (“−” indicates less than 50% inhibition at 10 μM) | − (“−” indicates less than 50% inhibition at 10 μM) | + (“+” indicates greater than 50% inhibition at 10 μM) | − (“−” indicates less than 50% inhibition at 10 μM) | − (“−” indicates less than 50% inhibition at 10 μM) | + (“+” indicates greater than 50% inhibition at 10 μM) | + (“+” indicates greater than 50% inhibition at 10 μM) |  |  |  |  |  |  |  |  |  |  | A10: inhibition of radioligand binding, human opioid (ORL1) ([7]; 10 µM): + (“+” indicates greater than 50% inhibition at 10 μM) |
| NCCCC(=O)NC1C(OCc2ccc3ccccc3c2)OC(COCc2ccc3ccccc3c2)C(O)C1OCc1ccc(Cl)cc1 (single isomer, unassigned) [compound 454] |  |  |  |  |  |  |  |  |  |  |  |  |  |  |  |  |  |  |  |  | A8: inhibition of radioligand binding ([1]; human NK1 membranes): + (“+” indicates greater than 50% inhibition at 10 μM); A4: inhibition of radioligand binding ([2]; human MC4 membranes): + (“+” indicates greater than 50% inhibition at 10 μM); A9: inhibition of radioligand binding ([3]; human NPY-Y1 membranes): − (“−” indicates less than 50% inhibition at 10 μM); A1: inhibition of radioligand binding ([4]; human DOP membranes): − (“−” indicates less than 50% inhibition at 10 μM); A2: inhibition of radioligand binding ([5]; human KOP membranes, 10 µM): − (“−” indicates less than 50% inhibition at 10 μM); A6: inhibition of radioligand binding ([6]; [125I]-S36057, human MCH1 membranes): + (“+” indicates greater than 50% inhibition at 10 μM); A10: inhibition of radioligand binding ([7]; human ORL1 membranes, 10 µM): + (“+” indicates greater than 50% inhibition at 10 μM); A7: inhibition of radioligand binding ([8]; human MOP membranes, 10 µM): + (“+” indicates greater than 50% inhibition at 10 μM); A11: inhibition of radioligand binding ([9]; mouse mUR2 membranes): − (“−” indicates less than 50% inhibition at 10 μM); A3: inhibition of radioligand binding ([10]; human MC3 membranes): + (“+” indicates greater than 50% inhibition at 10 μM); A5: inhibition of radioligand binding ([11]; human MC5 membranes): + (“+” indicates greater than 50% inhibition at 10 μM) |
| CO[C@H]1[C@H](O)[C@@H](COCc2ccccc2)OC(OCc2ccc(Cl)cc2)[C@@H]1NC(=O)CNC(=N)N (stereo partly shown) [compound 101] |  |  |  |  |  |  |  |  |  |  | − (“−” indicates less than 50% inhibition at 10 μM) | − (“−” indicates less than 50% inhibition at 10 μM) | − (“−” indicates less than 50% inhibition at 10 μM) | − (“−” indicates less than 50% inhibition at 10 μM) | − (“−” indicates less than 50% inhibition at 10 μM) | − (“−” indicates less than 50% inhibition at 10 μM) | − (“−” indicates less than 50% inhibition at 10 μM) | − (“−” indicates less than 50% inhibition at 10 μM) | − (“−” indicates less than 50% inhibition at 10 μM) | − (“−” indicates less than 50% inhibition at 10 μM) | A5 radioligand binding, percentage inhibition [11]: + (“+” indicates greater than 50% inhibition at 10 μM) |
